# From patent publication US20210253575A1, “PYRROLIDINE AMINE COMPOUNDS FOR THE TREATMENT OF AUTOIMMUNE DISEASE” (Hoffmann-La Roche Inc., priority 2018, published 2021)
# Target: T1, human TLR7 (Homo sapiens, UniProt Q9NYK1)
# T1 sequence (Q9NYK1 27-1049): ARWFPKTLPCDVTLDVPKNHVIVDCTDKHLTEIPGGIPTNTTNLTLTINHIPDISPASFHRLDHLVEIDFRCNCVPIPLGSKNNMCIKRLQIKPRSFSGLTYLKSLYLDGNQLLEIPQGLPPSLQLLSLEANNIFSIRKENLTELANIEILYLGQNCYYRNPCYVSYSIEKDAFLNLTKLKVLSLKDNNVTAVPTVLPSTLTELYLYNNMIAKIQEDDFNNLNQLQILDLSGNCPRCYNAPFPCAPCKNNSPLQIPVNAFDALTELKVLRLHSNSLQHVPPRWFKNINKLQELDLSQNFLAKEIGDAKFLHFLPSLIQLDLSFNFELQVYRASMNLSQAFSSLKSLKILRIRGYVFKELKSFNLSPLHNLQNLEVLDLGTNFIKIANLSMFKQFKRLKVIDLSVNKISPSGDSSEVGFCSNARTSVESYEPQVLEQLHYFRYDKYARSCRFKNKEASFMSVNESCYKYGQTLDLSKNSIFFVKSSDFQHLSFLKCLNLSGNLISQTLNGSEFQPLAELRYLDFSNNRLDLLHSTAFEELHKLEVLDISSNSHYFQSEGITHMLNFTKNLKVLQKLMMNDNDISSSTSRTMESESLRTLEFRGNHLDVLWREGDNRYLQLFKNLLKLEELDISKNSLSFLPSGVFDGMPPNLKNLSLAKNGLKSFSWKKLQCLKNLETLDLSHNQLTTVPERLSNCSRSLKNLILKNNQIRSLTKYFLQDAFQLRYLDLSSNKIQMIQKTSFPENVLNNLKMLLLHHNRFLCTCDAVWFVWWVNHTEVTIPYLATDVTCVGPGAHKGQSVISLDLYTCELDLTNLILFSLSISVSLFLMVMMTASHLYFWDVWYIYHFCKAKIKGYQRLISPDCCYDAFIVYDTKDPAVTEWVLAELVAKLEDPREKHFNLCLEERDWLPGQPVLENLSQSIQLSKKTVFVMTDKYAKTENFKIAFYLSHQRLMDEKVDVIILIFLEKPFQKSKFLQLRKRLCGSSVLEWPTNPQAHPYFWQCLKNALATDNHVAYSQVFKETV
# Assay: HEK293-Blue-hTLR-7 cells assay (SEAP reporter, R848 stimulation)
# Format: cell-based
# Details: HEK293-Blue-hTLR7 cells, R848 ligand, 20 hrs incubation
# Method: The following tests were carried out in order to determine the activity of the compounds of formula (I) in HEK293-Blue-hTLR-7/8/9 cells assay.
# HEK293-Blue-hTLR-7 Cells Assay:
# A stable HEK293-Blue-hTLR-7 cell line was purchased from InvivoGen (Cat. #: hkb-htlr7, San Diego, Calif., USA). These cells were originally designed for studying the stimulation of human TLR7 by monitoring the activation of NF-κB. A SEAP (secreted embryonic alkaline phosphatase) reporter gene was placed under the control of the IFN-β minimal promoter fused to five NF-κB and AP-1-binding sites. The SEAP was induced by activating NF-κB and AP-1 via stimulating HEK-Blue hTLR7 cells with TLR7 ligands. Therefore the reporter expression was declined by TLR7 antagonist under the stimulation of a ligand, such as R848 (Resiquimod), for incubation of 20 hrs. The cell culture supernatant SEAP reporter activity was determined using QUANTI-Blue™ kit (Cat. #: rep-qb1, Invivogen, San Diego, Ca, USA) at a wavelength of 640 nm, a detection medium that turns purple or blue in the presence of alkaline phosphatase.
# HEK293-Blue-hTLR7 cells were incubated at a density of 250,000-450,000 cells/mL in a volume of 170 μL in a 96-well plate in Dulbecco's Modified Eagle's medium (DMEM) containing 4.5 g/L glucose, 50 U/mL penicillin, […], […], 2 mM L-glutamine, 10% (v/v) heat-inactivated fetal bovine serum with addition of 20 μL test compound in a serial dilution in the presence of final DMSO at 1% and 10 μL of 20 uM R848 in above DMEM, perform incubation under 37° C. in a CO2 incubator for 20 hrs. Then 20 μL of the supernatant from each well was incubated with 180 μL Quanti-blue substrate solution at 37° C. for 2 hrs and the absorbance was read at 620-655 nm using a spectrophotometer. The signalling pathway that TLR7 activation leads to downstream NF-κB activation has been widely accepted, and therefore similar reporter assay was modified for evaluating TLR7 antagonist.
row,SMILES,IC50 [nM]
1,"N#Cc1ccc(N2CC(CN3CCC4(CCNCC4)CC3)C3(CC3)C2)c2nccnc12 (centres unmarked) [Example 16, 8-[7-(3,9-Diazaspiro[5.5]undecan-3-ylmethyl)-5-azaspiro[2.4]heptan-5-yl]quinoxaline-5-carbonitrile]",113
2,"C[C@H]1CN(c2ccc(C#N)c3nccnc23)C[C@@H]1CN1CCC2(CCNCC2)CC1 [Example 17, 8-[(3S,4R)-3-(3,9-diazaspiro[5.5]undecan-3-ylmethyl)-4-methyl-pyrrolidin-1-yl]quinoxaline-5-carbonitrile]",128
3,"N#Cc1ccc(N2CC(CN3C[C@H]4CNC[C@H]4C3)C3(CC3)C2)c2nccnc12 (stereo partly drawn) [Example 18, 8-[7-[[(3aR,6aS)-2,3,3a,4,6,6a-hexahydro-H-pyrrolo[3,4-c]pyrrol-5-yl]methyl]-5-azaspiro[2.4]heptan-5-yl]quinoxaline-5-carbonitrile]",137
4,"FC(F)(F)c1ccc(N2CC(CN3CCNCC3)C3(CC3)C2)c2nccnc12 (centres unmarked) [Example 20, 5-[7-(Piperazin-1-ylmethyl)-5-azaspiro[2.4]heptan-5-yl]-8-(trifluoromethyl)quinoxaline]",156
5,"N#Cc1ccc(N2CC(CN3CCC4(CCCNC4)C3)C3(CC3)C2)c2nccnc12 (centres unmarked) [Example 22, 8-[7-(2,9-Diazaspiro[4.5]decan-2-ylmethyl)-5-azaspiro[2.4]heptan-5-yl]quinoxaline-5-carbonitrile]",201
6,"C[C@H]1CN(c2ccc(C#N)c3ncccc23)C[C@@H]1CN1CCC2(CCNCC2)CC1 [Example 23, 5-[(3S,4R)-3-(3,9-diazaspiro[5.5]undecan-3-ylmethyl)-4-methyl-pyrrolidin-1-yl]quinoline-8-carbonitrile]",251
7,"N#Cc1ccc(N2CC(CN3CC4(CCCNC4)C3)C3(CC3)C2)c2nccnc12 (centres unmarked) [Example 24, 8-[7-(2,8-Diazaspiro[3.5]nonan-2-ylmethyl)-5-azaspiro[2.4]heptan-5-yl]quinoxaline-5-carbonitrile]",298
8,"N#Cc1ccc(N2CC(CN3C4CCC3CC(N)C4)C3(CC3)C2)c2nccnc12 (centres unmarked) [Example 25, 8-[7-[(3-Amino-8-azabicyclo[3.2.1]octan-8-yl)methyl]-5-azaspiro[2.4]heptan-5-yl]quinoxaline-5-carbonitrile]",311
9,"N#Cc1ccc(N2C[C@H](CN3CCC(N)CC3)[C@@H](C(F)(F)F)C2)c2nccnc12 [Example 26, 8-[(3S,4R)-3-[(4-Amino-1-piperidyl)methyl]-4-(trifluoromethyl)pyrrolidin-1-yl]quinoxaline-5-carbonitrile]",55
10,"C[C@H]1CN(c2ccc(C#N)c3nccnc23)C[C@@H]1CN1CCC2(CCNC2)C1 (stereo partly drawn) [Example 30, 8-[(3S,4R)-3-(2,7-diazaspiro[4.4]nonan-2-ylmethyl)-4-methyl-pyrrolidin-1-yl]quinoxaline-5-carbonitrile]",382
11,"FC(F)(F)c1ccc(N2CC(CN3CCC4(CCNCC4)CC3)C3(CC3)C2)c2nccnc12 (centres unmarked) [Example 31, 3-[[5-[8-(Trifluoromethyl)quinoxalin-5-yl]-5-azaspiro[2.4]heptan-7-yl]methyl]-3,9-diazaspiro[5.5]undecane]",385
12,"N#Cc1ccc(N2CC(CN3CCC4(CCNCC4)C3)C3(CC3)C2)c2nccnc12 (centres unmarked) [Example 32, 8-[7-(2,8-Diazaspiro[4.5]decan-2-ylmethyl)-5-azaspiro[2.4]heptan-5-yl]quinoxaline-5-carbonitrile]",402
13,"C[C@H]1CN(c2ccc(C#N)c3ncccc23)C[C@@H]1CN1CCC2(CCNC2)C1 (stereo partly drawn) [Example 35, 5-[(3S,4R)-3-(2,7-diazaspiro[4.4]nonan-2-ylmethyl)-4-methyl-pyrrolidin-1-yl]quinoline-8-carbonitrile]",468
14,"N#Cc1ccc(N2CCC(CN3CCC4(CCNCC4)CC3)C2)c2nccnc12 (centres unmarked) [Example 37, 8-[3-(3,9-Diazaspiro[5.5]undecan-3-ylmethyl)pyrrolidin-1-yl]quinoxaline-5-carbonitrile]",651
15,"N#Cc1ccc(N2CC(CNC3CCCNCC3)C3(CC3)C2)c2nccnc12 (centres unmarked) [Example 39, 8-[7-[(Azepan-4-ylamino)methyl]-5-azaspiro[2.4]heptan-5-yl]quinoxaline-5-carbonitrile]",709
16,C[C@@H]1CN(c2ccc(C(F)(F)F)c3nccnc23)C[C@H]1CNC1CCCNCC1 (some centres unmarked) [Example 40],746
17,"FC(F)(F)c1ccc(N2CC(CN3C[C@H]4CNC[C@H]4C3)C3(CC3)C2)c2nccnc12 (stereo partly drawn) [Example 41, 5-[7-[[(3aR,6aS)-2,3,3a,4,6,6a-hexahydro-H-pyrrolo[3,4-c]pyrrol-5-yl]methyl]-5-azaspiro[2.4]heptan-5-yl]-8-(trifluoromethyl)quinoxaline]",821
18,"N#Cc1ccc(N2CC(CN3CC4(CC(N)C4)C3)C3(CC3)C2)c2nccnc12 (centres unmarked) [Example 42, 8-[7-[(6-Amino-2-azaspiro[3.3]heptan-2-yl)methyl]-5-azaspiro[2.4]heptan-5-yl]quinoxaline-5-carbonitrile]",867
19,"N#Cc1ccc(N2CC(CN3CCC4(CCNC4)C3)C3(CC3)C2)c2cccnc12 (centres unmarked) [Example 43, 5-[7-(2,7-Diazaspiro[4.4]nonan-2-ylmethyl)-5-azaspiro[2.4]heptan-5-yl]quinoline-8-carbonitrile]",899
20,"N#Cc1ccc(N2C[C@H](CN3CCC4(CCCNC4)CC3)[C@@H](C(F)(F)F)C2)c2nccnc12 [Example 45, 8-[(3S,4R)-3-(2,9-diazaspiro[5.5]undecan-9-ylmethyl)-4-(trifluoromethyl)pyrrolidin-1-yl]quinoxaline-5-carbonitrile]",49
21,"N#Cc1ccc(N2C[C@H](CN3CCC4(CCNCC4)C3)[C@@H](C(F)(F)F)C2)c2nccnc12 [Example 46, 8-[(3S,4R)-3-(2,8-diazaspiro[4.5]decan-2-ylmethyl)-4-(trifluoromethyl)pyrrolidin-1-yl]quinoxaline-5-carbonitrile]",93
22,"N#Cc1ccc(N2C[C@H](CN3CC4(CC(N)C4)C3)[C@@H](C(F)(F)F)C2)c2nccnc12 [Example 47, 8-[(3S,4R)-3-[(6-amino-2-azaspiro[3.3]heptan-2-yl)methyl]-4-(trifluoromethyl)pyrrolidin-1-yl]quinoxaline-5-carbonitrile]",88
23,"N#Cc1ccc(N2C[C@H](CN3CC4(CCNCC4)C3)[C@@H](C(F)(F)F)C2)c2nccnc12 [Example 48, 8-[(3S,4R)-3-(2,7-diazaspiro[3.5]nonan-2-ylmethyl)-4-(trifluoromethyl)pyrrolidin-1-yl]quinoxaline-5-carbonitrile]",51
24,"N#Cc1ccc(N2CC(CN3CCC4(CC3)CNCCO4)C3(CC3)C2)c2nccnc12 (centres unmarked) [Example 49, 8-[7-(1-Oxa-4,9-diazaspiro[5.5]undecan-9-ylmethyl)-5-azaspiro[2.4]heptan-5-yl]quinoxaline-5-carbonitrile]",153
25,"N#Cc1ccc(N2CC(CN3CC4CCNCC43)C3(CC3)C2)c2nccnc12 (centres unmarked) [Example 50, 8-[7-(3,8-Diazabicyclo[4.2.0]octan-8-ylmethyl)-5-azaspiro[2.4]heptan-5-yl]quinoxaline-5-carbonitrile]",232
26,"N#Cc1ccc(N2C[C@H](CN3CCC(N)CC3)[C@@H](C(F)(F)F)C2)c2nccnc12 [Example 51, 8-[(3S,4R)-3-[(4-amino-1-piperidyl)methyl]-4-(trifluoromethyl)pyrrolidin-1-yl]quinoxaline-5-carbonitrile]",90
